# Measured values reported in ChEMBL document CHEMBL1777804, “Part 3: Design and synthesis of proline-derived α2δ ligands” (Bioorg Med Chem Lett, 2011).
# Experiments:
# [1] = Displacement of [3H]gabapentin from Voltage-dependent calcium channel subunit alpha-2/delta in pig cerebral cortex; type: tissue-based, Sus scrofa
# [2] = Lipophilicity, log D of the compound; type: physicochemical; conditions: octanol/water
# [3] = Plasma protein binding in human; type: ADME, cell-free; conditions: read-out: PPB (converted)
# [4] = Plasma protein binding in rat; type: ADME, cell-free; conditions: read-out: PPB (converted)
# [5] = Half life in rat; type: ADME, organism-based; conditions: in vivo
# [6] = Oral bioavailability in rat; type: ADME, organism-based; conditions: in vivo
# Rattus norvegicus = species on record: Rattus norvegicus; experiment: Unbound clearance in rat urine; type: ADME, organism-based; conditions: in vivo
# [7] = Dissociation constant, pKa of the compound; type: physicochemical
# [8] = Ratio of drug level in CSF to plasma in rat; type: ADME
# [9] = Clearance in dog at 0.5 mg/kg, po; type: ADME, organism-based, Canis lupus familiaris; design: dose 0.5 mg/kg, route oral; conditions: in vivo
# [10] = Half life in dog at 0.5 mg/kg, po; type: ADME, organism-based, Canis lupus familiaris; design: dose 0.5 mg/kg, route oral; conditions: in vivo
# [11] = Inhibition of Voltage-dependent calcium channel subunit alpha-2/delta
structure (smiles),measurement,setting,value
O=C(O)[C@@H]1C[C@H](Cc2ccccc2)CN1,IC50,[1],272 nM
Cl.O=C(O)[C@@H]1C[C@H](Cc2cccc(F)c2)CN1,IC50,[1],17 nM
same,logD,[2],0.1
same,fraction unbound,[3],0.73
same,fraction unbound,[4],0.82
same,half-life,[5],1.6 h
same,bioavailability,[6],89%
same,CL,Rattus norvegicus,6 mL/min/kg
same,pKa,[7],10.1
same,Kp,[8],0.004
same,CL/F,[9],0.4 mL/min/kg
same,half-life,[10],26 h
O=C(O)[C@H]1C[C@@H](Cc2cccc(F)c2)CN1,IC50,[1],> 10000 nM
O=C(O)[C@@H]1C[C@H](Cc2cccc(F)c2F)CN1,IC50,[1],27 nM
CC(C)C[C@H](CN)CC(=O)O [PREGABALIN],IC50,[11],80 nM
O=C(O)[C@@H]1C[C@H](Cc2cccc(OC(F)(F)F)c2)CN1,IC50,[1],4 nM
O=C(O)[C@@H]1C[C@H](Cc2cc(Cl)ccc2Cl)CN1,IC50,[1],5 nM
O=C(O)[C@@H]1C[C@H](Cc2cc(F)ccc2F)CN1,IC50,[1],10 nM
O=C(O)[C@@H]1C[C@H](Oc2cccc(Cl)c2)CN1,IC50,[1],4 nM
same,fraction unbound,[4],0.19
same,half-life,[5],0.4 h
same,bioavailability,[6],100%
same,CL,Rattus norvegicus,41 mL/min/kg
same,pKa,[7],8.9
O=C(O)[C@@H]1C[C@H](COc2cccc(Cl)c2)CN1,IC50,[1],13 nM
NCC1(CC(=O)O)CCCCC1 [GABAPENTIN],IC50,[11],140 nM
O=C(O)[C@@H]1C[C@H](Cc2ccccc2Cl)CN1,IC50,[1],8 nM
same,logD,[2],0.6
same,fraction unbound,[4],0.67
same,half-life,[5],0.5 h
same,CL,Rattus norvegicus,15 mL/min/kg
O=C(O)[C@@H]1C[C@H](COc2cccc(F)c2)CN1,IC50,[1],25 nM
same,logD,[2],-0.3
same,fraction unbound,[3],0.32
same,fraction unbound,[4],0.91
same,half-life,[5],1.4 h
same,CL,Rattus norvegicus,7 mL/min/kg
COc1cccc(C[C@@H]2CN[C@H](C(=O)O)C2)c1,IC50,[1],28 nM
CCc1cccc(C[C@@H]2CN[C@H](C(=O)O)C2)c1,IC50,[1],27 nM
O=C(O)[C@@H]1C[C@H](OCc2ccc(Cl)cc2)CN1,IC50,[1],48 nM
same,fraction unbound,[4],0.65
same,CL,Rattus norvegicus,26 mL/min/kg
O=C(O)[C@@H]1C[C@H](Cc2ccccc2F)CN1,IC50,[1],108 nM
